Results published in patent US11732029B2, “Methods and compositions for the treatment of wounds” (The University of Chicago, priority 2017, dated 2023).
Entries after “also recorded” stand apart in the source; their conditions may differ.

T1: VEGF-A165 (Homo sapiens, UniProt P15692)
T1 construct: All growth factors (GFs) and chemokines were purchased in their mature forms; purchased PeproTech; host or cells: Escherichia coli
T1 sequence (P15692 27-191 isoform P15692-4 limits assumed): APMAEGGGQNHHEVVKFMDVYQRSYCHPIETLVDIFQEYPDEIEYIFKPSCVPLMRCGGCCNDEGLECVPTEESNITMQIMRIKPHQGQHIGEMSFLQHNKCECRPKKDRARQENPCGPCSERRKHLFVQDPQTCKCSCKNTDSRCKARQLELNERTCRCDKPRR

T2: VEGF-A145 (Homo sapiens, UniProt P15692)
T2 construct: All GFs and chemokines were purchased in their mature forms; purchased R & D Systems
T2 sequence (P15692 27-171 isoform P15692-6 limits assumed): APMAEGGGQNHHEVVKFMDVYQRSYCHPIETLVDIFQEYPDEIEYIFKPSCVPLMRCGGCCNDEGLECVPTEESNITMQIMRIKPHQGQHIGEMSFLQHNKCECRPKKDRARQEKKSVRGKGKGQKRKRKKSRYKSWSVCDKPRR

T3: PlGF-2 (Homo sapiens, UniProt P49763)
T3 sequence (P49763 19-170 isoform P49763-3 limits assumed): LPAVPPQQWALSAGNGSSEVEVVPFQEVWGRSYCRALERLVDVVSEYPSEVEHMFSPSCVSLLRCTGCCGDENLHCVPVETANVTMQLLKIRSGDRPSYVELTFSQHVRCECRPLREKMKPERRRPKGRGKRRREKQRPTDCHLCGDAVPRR

B1: vWF A2: recombinant human vWF A2 domain (R & D systems) (protein)
chain: DVAFVLEGSDKIGEADFNRSKEFMEEVIQRMDVGQDSIHVTVLQYSYMVTVEYPFSEAQSKGDILQRVREIRYQGGNRTNTGLALRYLSDHSFLVSQGDREQAPNLVYMVTGNPASDEIKRLPGDIQVVPIGVGPNANVQELERIGWPNAPILIQDFETLPREAPDLV

Legend:
VEGF-A165 [1] = target: T1, VEGF-A165; test: vWF binding to recombinant VEGF-A isoforms (ELISA); settings: plate coated with 50 nM vWF domains, 1 μg/mL VEGF-A, vs BSA
Experimental: (§1) ELISA was performed as previously reported1. In brief, ELISA plates (med binding: Greiner Bio-One) were coated with 50 nM BSA (GE Healthcare), pro-peptide containing recombinant vWF (Sino Biological), plasma-derived vWF (EMD Millipore), recombinant human vWF A1 domain (U-Protein Express), recombinant human vWF A2 domain (R & D systems), recombinant human vWF A3 domain (U-Protein Express), vWF A1 HBD peptide or scrambled/mutated HBD peptide (all peptides were synthesized by Genscript). After blocking with 2% BSA solution containing PBS-T, 1 μg/mL of recombinant human VEGF-A121 (PeproTech), recombinant human VEGF-A145 (R & D Systems), or recombinant human VEGF-A165 (PeproTech) was added. Bound VEGF-A was detected with 1 μg/mL of mouse anti-human VEGF-A antibody (clone: 26503, R & D systems). After 60 min of incubation, horseradish peroxidase (HRP) conjugated goat anti-mouse antibody (1:2000 dilution, Dako) was added and incubated for another 60 min. Color development and the absorbance measurement were done as described above.

VEGF-A145 = target: T2, VEGF-A145; test: vWF binding to recombinant VEGF-A isoforms (ELISA); settings: plate coated with 50 nM vWF domains, 1 μg/mL VEGF-A, vs BSA
Experimental: as §1

[2] = Heparin binding to synthesized laminin peptides (ELISA); parameters: key to Interaction with Heparin: ++ indicates high affinities; + indicates medium/low affinities; settings: for binding to heparin: ELISA, peptide-coated plate, 10 μg/mL biotinylated heparin; for Interaction with Heparin: summary Table 2
Experimental: (§2) ELISA tests were performed as described above. In brief, ELISA plates were coated with 1 μg/mL of laminin alpha 3 LG domain recombinant protein, laminin alpha 4 LG domain recombinant protein (R&D systems), laminin alpha 5 LG domain recombinant protein (LD BioPharma), or laminin peptide (sequences are described in Table 1, chemically synthesized by Genscript) in PBS for 2 hrs at 37° C. 1 μg/mL of BSA served as non-binding protein control. After blocking with 2% BSA PBS-0.05% Tween 20 (PBS-T) solution, 1 μg/mL of the recombinant human proteins (VEGF-A121, VEGF-A165, PlGF-1, PlGF-2, PDGF-BB or FGF-2) or 10 μg/mL of biotinylated heparin (Sigma-Aldrich) were added. Bound GF was detected with biotinylated antibodies for human VEGF, PlGF, PDGF-BB, or FGF-2 (R&D Systems). The antibodies were detected by streptavidin-HRP (R&D Systems).

GFs = test: GF binding to synthesized laminin peptides (ELISA), all tested GFs together; parameters: species or system human; key to Interaction with GFs: ++ indicates high affinities; + indicates medium/low affinities; settings: for binding to the tested GFs: ELISA, statement for all tested GFs (VEGF-A, PlGF, PDGF-BB, FGF-2); for Interaction with GFs: summary Table 2
Experimental: as §2

[3] = tested on: syndecan-1, syndecan-2, syndecan-3, syndecan-4; test: Recombinant syndecan binding to synthesized laminin HBD peptides (ELISA); parameters: species or system human; key to Interaction with Syndecans: ++ indicates high affinities; + indicates medium/low affinities; settings: for binding to recombinant syndecans (syndecan 1-4): ELISA, peptide-coated plate, 1 μg/mL syndecan; for Interaction with Syndecans: summary Table 2
Experimental: ELISA tests were performed as described above. In brief, ELISA plates were coated with 1 μg/mL laminin peptide (sequences are described in Table 1, chemically synthesized by Genscript) in PBS for 2 hrs at 37° C. 1 μg/mL of BSA served as non-binding protein control. After blocking with 2% BSA PBS-T solution, 1 μg/mL of the recombinant human syndecan-1, syndecan-2, syndecan-3, syndecan-4 (all syndecan proteins are histidine-tagged; SinoBiological) were added. Bound GF was detected with anti-histidine tag antibody (1:1000 dilution, BioLegend).

VEGF-A165 [4] = target: T1, VEGF-A165; test: GF binding to recombinant laminin LG domain protein and synthesized laminin HBD peptides (ELISA); settings: plate coated with LG domain protein or peptide, 1 μg/mL GF, vs BSA-coated wells
Experimental: as §2

human lung fibroblasts = test: Cell adhesion assay, fibroblasts on laminin peptide coated plates; format: cell-based; parameters: key to Cell adhesion Fibroblasts: ++ indicates high affinities; + indicates medium/low affinities; settings: for fibroblast attachment: peptide-coated plates, 30 min at 37° C., without EDTA; for Cell adhesion Fibroblasts: summary Table 2
Experimental: (§3) 96-well plates (non-tissue culture treated, Greiner Bio-one) were pre-coated with 1 μg/mL with laminin HBD peptides in PBS for 2 hrs at 37° C., followed by blocking with 2% BSA PBS for 1 h at RT. Cell adhesion assays were performed using human lung fibroblasts (Lonza) in FGM-2 medium (Lonza) or human umbilical vein endothelial cells (HUVEC; Lonza) in EGM-2 medium (Lonza) supplemented with 1% fetal bovine serum (FBS) and […] VEGF-A165, with or without 5 mM EDTA (Sigma-Aldrich). Cells were plated at 3000 cells/well on laminin peptide pre-coated plates and incubated for 30 min at 37° C., 5% CO2. Then, the medium was removed, and wells were quickly washed three times with PBS. Cell numbers were quantified using a CyQUANT assay, according to the manufacturer's instructions (Invitrogen). All cell lines were checked for mycoplasma contamination and used in passages from 5 to 8.

PDGF-BB = target: T4, PDGF-BB (Homo sapiens, UniProt P01127); test: GF binding to recombinant laminin LG domain protein and synthesized laminin HBD peptides (ELISA); settings: plate coated with LG domain protein or peptide, 1 μg/mL GF, vs BSA-coated wells
T4 construct: All growth factors (GFs) and chemokines were purchased in their mature forms; purchased PeproTech; host or cells: Escherichia coli
T4 sequence (P01127 82-190 limits assumed): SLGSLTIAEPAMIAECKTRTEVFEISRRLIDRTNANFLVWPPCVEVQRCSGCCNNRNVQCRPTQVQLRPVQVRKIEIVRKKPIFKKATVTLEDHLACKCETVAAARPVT
Experimental: as §2

PlGF-2 = target: T3, PlGF-2; test: as above; parameters: All growth factors (GFs) and chemokines were purchased in their mature forms; purchased PeproTech; host or cells: Escherichia coli; settings: plate coated with LG domain protein or peptide, 1 μg/mL GF, vs BSA-coated wells
Experimental: as §2

FGF-2 = FGF-2 (Homo sapiens, UniProt P09038); test: as above; parameters: All growth factors (GFs) and chemokines were purchased in their mature forms; purchased PeproTech; host or cells: Escherichia coli; settings: plate coated with LG domain protein or peptide, 1 μg/mL GF, vs BSA-coated wells
Chain of FGF-2 (P09038 143-288): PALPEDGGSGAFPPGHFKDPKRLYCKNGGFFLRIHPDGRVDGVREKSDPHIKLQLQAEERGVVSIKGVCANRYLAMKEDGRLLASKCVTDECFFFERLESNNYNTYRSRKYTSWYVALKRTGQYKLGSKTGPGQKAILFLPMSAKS
Experimental: as §2

HUVEC = test: Cell adhesion assay, HUVEC on laminin peptide coated plates; format: cell-based, human; parameters: key to Cell adhesion HUVECs: ++ indicates high affinities; + indicates medium/low affinities; settings: for HUVEC attachment: peptide-coated plates, 30 min at 37° C., without EDTA; for Cell adhesion HUVECs: summary Table 2
Experimental: as §3

Molecule	binding to VEGF-A165 (VEGF-A165 [1])	binding to VEGF-A145 (VEGF-A145)	binding to heparin [2]	binding to the tested GFs (GFs)	binding to recombinant syndecans (syndecan 1-4) [3]	Interaction with Syndecans [3]	binding to VEGF-A165 (VEGF-A165 [4])	Interaction with GFs (GFs)	fibroblast attachment (human lung fibroblasts)	Cell adhesion Fibroblasts (human lung fibroblasts)	binding to PDGF-BB (PDGF-BB)	Interaction with Heparin [2]	binding to PlGF-2 (PlGF-2)	binding to FGF-2 (FGF-2)	HUVEC attachment (HUVEC)	Cell adhesion HUVECs (HUVEC)
A3: recombinant human vWF A3 domain (U-Protein Express)	no binding	no binding														
ARKASRRSRQPARH [α53312-3325, laminin α5 chain linker peptide, 14 aa]			did not bind to heparin	did not show particular binding to any tested GF	weak binding	+										
KNSFMALYLSKGR [α33031-3043, laminin α3 chain LG4-derived peptide, 13 aa]			non-heparin binding		weak binding	+	bound	+	enhancement of fibroblast attachment	+						
PLFLLHKKGKNLSKPKASQNKKGGKSK [α41408-1434, laminin α4 chain linker peptide, 27 aa]			bound to heparin		significant binding	++	bound	++			bound	++	bound	bound		
PPFLMLLKGSTRFNKTKTFR [α32932-2951, laminin α3 chain LG3-LG4 linker peptide, 20 aa]			bound to heparin		weak binding	+	preferentially bound	+	enhancement of fibroblast attachment	+		++		preferentially bound	promoted HUVEC attachment	+
RQRSRPGRWHKVSVRWEKNR [α53417-3436, laminin α5 chain LG4-derived peptide, 20 aa]			bound to heparin		significant binding	++	bound	++	enhancement of fibroblast attachment	+	bound	++	bound	bound		
TLFLAHGRLVYMFNVGHKKLKIR [α41521-1543, laminin α4 chain LG4-derived peptide, 23 aa]			bound to heparin		significant binding	++		+	enhancement of fibroblast attachment	+	not statistically significant	++			promoted HUVEC attachment	+
TLPDVGLELEVR [α53539-3550, laminin α5 chain LG5-derived peptide, 12 aa]			did not show binding to heparin; also recorded: non-heparin binding	significantly bound to all tested GFs	did not show binding			+								
TPGLGPRGLQATARKASRRSRQPARHPACML [α53300-3330, laminin α5 chain linker peptide, 31 aa]			bound to heparin		significant binding	++	preferentially bound	+				++	preferentially bound			
pro-peptide-containing recombinant vWF: immature, pro-peptide containing recombinant vWF (Sino Biological)	bind															
B1	no binding	no binding														
